We go through 12 compounds from ChEMBL document CHEMBL5500323, “Plasmodium falciparum topoisomerases: Emerging targets for anti-malarial therapy” (Eur J Med Chem, 2024).

Molecules are shown by their SMILES. pIC50: −log10 of the molar value.

A short description of assay [1]: Inhibition of DNA topoisomerase II (unknown origin). On the set-up: species or system Homo sapiens.
Assay [2] is described as follows: Inhibition of Plasmodium falciparum NF54 Gyrase B.
Another assay addresses DNA gyrase (Escherichia coli, UniProt P0AES4+P0AES6). The assay is described as follows: Inhibition of Escherichia coli DNA gyrase ATPase activity incubated for 80 mins. The class given is protein-complex assay.
Assay [3] in a line: Inhibition of recombinant Plasmodium falciparum strain 3D7 Gyrase B expressed in Escherichia coli BL21 (DE3).
Assay [4] in a line: Inhibition of Plasmodium falciparum DNA topoisomerase VI.
A further assay has as its target T1, DNA topoisomerase 2 (Plasmodium falciparum K1, UniProt P41001).
T1 sequence (P41001 whole entry): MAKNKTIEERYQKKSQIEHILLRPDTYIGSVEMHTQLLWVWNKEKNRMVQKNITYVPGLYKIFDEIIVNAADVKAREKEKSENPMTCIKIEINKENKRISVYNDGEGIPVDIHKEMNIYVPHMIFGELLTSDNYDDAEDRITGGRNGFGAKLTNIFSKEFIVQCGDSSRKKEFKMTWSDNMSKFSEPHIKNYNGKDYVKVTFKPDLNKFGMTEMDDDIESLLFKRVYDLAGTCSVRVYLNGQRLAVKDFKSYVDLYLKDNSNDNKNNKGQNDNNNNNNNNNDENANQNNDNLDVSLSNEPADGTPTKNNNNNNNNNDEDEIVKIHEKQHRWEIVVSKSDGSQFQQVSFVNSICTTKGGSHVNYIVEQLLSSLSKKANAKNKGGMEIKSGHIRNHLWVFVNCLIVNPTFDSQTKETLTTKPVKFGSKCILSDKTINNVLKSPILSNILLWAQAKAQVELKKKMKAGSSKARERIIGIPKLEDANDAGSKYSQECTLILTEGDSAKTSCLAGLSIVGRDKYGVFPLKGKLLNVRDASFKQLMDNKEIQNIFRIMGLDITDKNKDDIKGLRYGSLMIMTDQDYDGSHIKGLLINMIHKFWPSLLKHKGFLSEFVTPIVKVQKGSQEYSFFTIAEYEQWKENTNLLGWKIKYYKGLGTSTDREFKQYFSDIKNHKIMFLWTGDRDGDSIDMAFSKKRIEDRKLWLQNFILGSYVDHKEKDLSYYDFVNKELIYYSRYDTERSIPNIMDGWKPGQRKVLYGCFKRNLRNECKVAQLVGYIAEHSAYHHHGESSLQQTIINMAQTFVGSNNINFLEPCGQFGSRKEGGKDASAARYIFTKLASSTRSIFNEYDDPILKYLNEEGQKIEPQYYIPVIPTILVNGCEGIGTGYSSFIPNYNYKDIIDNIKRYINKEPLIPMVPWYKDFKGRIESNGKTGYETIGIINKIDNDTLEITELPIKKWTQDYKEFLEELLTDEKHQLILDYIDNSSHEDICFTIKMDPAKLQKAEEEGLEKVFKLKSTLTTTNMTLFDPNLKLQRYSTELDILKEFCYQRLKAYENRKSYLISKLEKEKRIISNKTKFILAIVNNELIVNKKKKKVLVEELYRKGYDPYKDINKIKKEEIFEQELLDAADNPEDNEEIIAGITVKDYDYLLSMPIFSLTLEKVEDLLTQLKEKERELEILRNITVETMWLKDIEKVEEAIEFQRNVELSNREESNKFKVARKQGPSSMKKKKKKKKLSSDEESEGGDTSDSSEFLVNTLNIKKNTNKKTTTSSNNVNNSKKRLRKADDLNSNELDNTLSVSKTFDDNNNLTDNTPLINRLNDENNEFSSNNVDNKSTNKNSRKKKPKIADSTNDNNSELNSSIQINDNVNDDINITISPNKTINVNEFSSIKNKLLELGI
The assay is described as follows: Inhibition of Plasmodium falciparum isolate K1 DNA topoisomerase 2.

A short description of assay [5]: Inhibition of C-terminal 6His-tagged Plasmodium falciparum Gyrase B expressed in Escherichia coli.
Assay [6] in a line: Inhibition of Plasmodium falciparum 3D7 Gyrase B.

As a reminder, the pIC50 is −log10 of the IC50, conventionally taken in molar units. On to `O=C(O)c1cn(C2CC2)c2cc(N3CCNCC3)c(F)cc2c1=O` [CIPROFLOXACIN], for which the pIC50 in assay [1] was 4.46. In assay [2], `COc1c(N2CCNC(C)C2)c(F)cc2c(=O)c(C(=O)O)cn(C3CC3)c12` (configuration not stated) [GATIFLOXACIN] showed a pIC50 of 4.92. In turn, `O=C1c2ccccc2C(=O)c2c1cc(S(=O)(=O)O)c(O)c2O` [Alizarin Red S] showed a pIC50 against DNA gyrase of 4.26.

`COc1ccc2ncc(C#N)c(CCN3CCC(NCc4cc5c(cn4)OCS5)CC3)c2c1` had a pIC50 in assay [1] of 6.22. For `CO[C@@H]1[C@@H](OC(=O)c2ccc(C)[nH]2)[C@@H](O)[C@H](Oc2ccc3c(O)c(NC(=O)c4c[nH]c(C(=O)Nc5c(O)c6ccc(O[C@@H]7OC(C)(C)[C@H](OC)[C@@H](OC(=O)c8ccc(C)[nH]8)[C@H]7O)c(C)c6oc5=O)c4C)c(=O)oc3c2C)OC1(C)C`, in assay [3], the pIC50 is 4.40.

For `C[C@@H]1C[C@H]2O[C@@H]2/C=C\C=C\C(=O)Cc2c(Cl)c(O)cc(O)c2C(=O)O1` [RADICICOL], the negative-log IC50 (pIC50) in assay [4] is 4.10. Regarding `COc1ccc2nc3cc(Cl)ccc3c(Nc3cc(CN4CCCC4)c(O)c(CN4CCCC4)c3)c2n1` [PYRONARIDINE], the pIC50 against DNA topoisomerase 2 is 5.26.

The compound `O=c1c(O)cccc2cc(O)c(O)c(O)c12` [PURPUROGALLIN] showed a pIC50 on DNA gyrase of 5.02.

Regarding `NC1CCN(c2c(F)cc3c(=O)c(C(=O)O)cn(C4CC4)c3c2Cl)C1` (configuration not stated) [CLINAFLOXACIN], the pIC50 in assay [2] was 5.49. `CO[C@@H]1[C@@H](OC(N)=O)[C@@H](O)[C@H](Oc2ccc3c(O)c(NC(=O)c4ccc(O)c(CC=C(C)C)c4)c(=O)oc3c2C)OC1(C)C` [NOVOBIOCIN] showed a negative-log IC50 (pIC50) in assay [5] of 4.52. In assay [6], `C[n+]1c2cc(N)ccc2cc2ccc(N)cc21` [EUFLAVINE] had a pIC50 of 6.00. For the compound `COc1cc([C@@H]2c3cc4c(cc3[C@@H](O[C@@H]3O[C@@H]5CO[C@@H](C)O[C@H]5[C@H](O)[C@H]3O)[C@H]3COC(=O)[C@H]23)OCO4)cc(OC)c1O` [ETOPOSIDE], in assay [1], the pIC50 is 4.70.
